Experimental data taken from patent publication US20100137138A1, “HERBICIDE/SAFENER COMBINATION” (BAYER CROPSCIENCE AG, priority 2008, published 2010).

Experiments:
Format in all cases: in vivo
Wheat (Triso) = assay: Pre-emergence herbicidal effect and safener effect, Wheat (Triso); conditions: herbicide dosage 100 g a.i./ha, visual scoring vs untreated controls
Excerpt: (§1) Seeds or rhizome pieces of mono- and dicotyledonous weed plants and crop plants were planted in peat pots in sandy loam and covered with earth. The herbicide/safener active ingredient combinations according to the invention, formulated as water-soluble powders or suspensions, and, in parallel experiments, the correspondingly formulated individual active ingredients were then applied to the surface of the covering earth at an application rate of 600 to 800 l of water/ha (converted) in a variety of dosages.
(§2) After the treatment, the pots were placed in the greenhouse and kept under good growth conditions for the weeds and the crop plants. Visual scoring of the plant damage or emergence damage was carried out after the test plants had emerged after a test period of 2 to 4 weeks, in comparison with untreated controls.

Corn (Aventura) [1] = assay: Post-emergence herbicidal effect and safener effect, Corn (Aventura); conditions: herbicide dosage 50 g a.i./ha, visual scoring vs untreated controls
Protocol: (§3) Seeds or rhizome pieces of mono- and dicotyledonous harmful plants and of crop plants are planted in peat pots in sandy loam, covered with earth and grown in a greenhouse under good growth conditions. Alternatively to this, harmful plants occurring in the paddy rice cultivation are cultivated in pots in which water stands up to 2 cm above the soil surface. 10 to 20 days after sowing, the test plants are treated in the one to three-leaf stage. The herbicide/safener active ingredient combinations according to the invention, formulated as water-soluble powders or suspensions, and, in parallel experiments, the correspondingly formulated individual active ingredients are sprayed onto the green plant parts in various dosages using an application rate of 300 l of water/ha (converted) and, after the test plants have remained in the greenhouse under optimum growth conditions for 2-3 weeks, the effect of the preparations is scored visually in comparison with untreated controls. In the case of rice or in the case of harmful plants which occur in the rice cultivation, the active ingredients are also placed directly into the irrigation water (application analogous to the so-called granules application) or sprayed onto plants and into the irrigation water.

Rice (Ballila) = assay: Post-emergence herbicidal effect and safener effect, Rice (Ballila); conditions: herbicide dosage 100 g a.i./ha, visual scoring vs untreated controls
Protocol: as §3

Barley (Adonis) = assay: Post-emergence herbicidal effect and safener effect, Barley (Adonis); conditions: herbicide dosage 25 g a.i./ha, visual scoring vs untreated controls
Protocol: as §3

Corn (Aventura) [2] = assay: Pre-emergence herbicidal effect and safener effect, Corn (Aventura); conditions: herbicide dosage 100 g a.i./ha, visual scoring vs untreated controls
Excerpt: as §1, §2

`COC(=O)c1nc(-c2ccc(Cl)c(OC)c2F)nc(N)c1Cl` [Compound I-272] was tested, and the “% Effect (without safener)” value (Wheat (Triso)) was 30%, the “% Effect (without safener)” value (Corn (Aventura) [1]) was 70% and the “% Effect (without safener)” value (Rice (Ballila)) was 70%. The “% Effect (without safener)” value (Barley (Adonis)) was 20% and the “% Effect (without safener)” value (Corn (Aventura) [2]) was 70%.
